# Experimental data from paper PMC5030359, “Cathelicidin Antimicrobial Peptides with Reduced Activation of Toll-Like Receptor Signaling Have Potent Bactericidal Activity against Colistin-Resistant Bacteria” (mBio, 2016).
# Assays:
# TLR3 = TLR3 signaling: IL-6 ELISA in BEAS-2B cells treated with poly(I·C); type: cell-based, human
# Protocol: (§1) Eight cathelicidins produced by eight mammals were selected for an initial examination (Fig. 1A). […] However, the number of charged residues and the lengths of the disordered residues differed (Fig. 1B). The peptides were added to BEAS-2B cells, a human lung epithelial cell line that expresses multiple TLRs and can release proinflammatory cytokines in response to their activation and the enhancement of cytokine release by LL-37 ([15]). BEAS-2B cells treated with the TLR3 agonist poly(I⋅C) and 2 µM LL-37 increased interleukin 6 (IL-6) production by threefold. All of the nonhuman cathelicidins tested had lower TLR3 signaling compared to LL-37 (Fig. 1B). The lack of TLR3 signaling by the nonhuman cathelicidins was due to the inability to use the formyl peptide receptor-like receptor 1 to endocytose the double-stranded RNA (dsRNA)−LL-37 complex and deliver the poly(I⋅C) to TLR3 in endosomes ([17]) (see Fig. S1 in the supplemental material). All of the nonhuman cathelicidins also had reduced activation of TLR9 compared to LL-37 (Fig. 1B).
# (§2) FIG 1 Cathelicidins from animals have distinct abilities to act on Toll-like receptor signaling. (A) A phylogenetic relationship of cathelicidins from mammals. The figure is derived from results of Zanetti et al. (12). (B) Names, lengths, and sequences of cathelicidin peptides and their ability to affect Toll-like receptor signaling. The peptide lengths are shown in the numbers of amino acids (AAs). The residues predicted to form an α-helix are underlined with an arrow. The basic, acidic, and aromatic residues are colored blue, red, and green, respectively. TLR signaling was assessed by the amount of IL-6 cytokine produced in BEAS-2B cells. IL-6 levels were quantified using enzyme-linked immunosorbent assay (ELISA), and the level of IL-6 in the control cells is normalized to 100%. The peptides were added to the cells at a final concentration of 2 μM. Each result is the mean of a minimum of three independent assays, and the standard deviations (SD) are shown in parentheses.
# (§3) The concentration of IL-6 secreted into the cell medium was quantified using the OptEIA kit (BD Biosciences, San Jose, CA). A typical assay used 1 × 10^4 BEAS-2B cells/well grown for 24 h in flat-bottom 96-well plates. Poly(I⋅C) was added to a final concentration of 0.13 µg/ml for 24 h. ODN2006 was added to 0.5 nM. Lipopolysaccharides were used at 0.5 µg/ml. All data shown are the means and ranges of 1 standard error for a minimum of three independent samples. Data sets were compared using the Student t test calculated with GraphPad Prism 5 software.
# TLR9 = TLR9 signaling: IL-6 ELISA in BEAS-2B cells treated with CpG DNA ODN2006; type: cell-based, human; details: ODN2006 0.5 nM, peptide 2 µM, control cells = 100%, mean (SD) of minimum three assays
# Protocol: as §1, §2, §3
# TLR4 = TLR4 signaling: IL-6 ELISA in BEAS-2B cells treated with LPS; type: cell-based, human
# Text: as §2
# LL-37 at 2 µM final concentration reduced IL-6 production to approximately half that of the untreated cells (Fig. 1B).
# as §3
# [1] = broth microdilution, CAMHB, at least three independent assays
# Protocol for 19 Gram-negative strains: (A) Sequences of the cathelicidins, the numbers of bacterial strains killed, and hRBC lysis by the cathelicidins. […] The bacterial species tested are Klebsiella pneumoniae (K. p.), Serratia marcescens (S. m.), Enterobacter cloacae (E. cl.), Escherichia coli (E. c.), and Pseudomonas aeruginosa (P. a.). MICs were determined by the microdilution assay. […] The results are the median values of at least three independent assays.
# We tested a panel of cathelicidins for inhibiting growth of 19 Gram-negative strains from the family Enterobacteriaceae and the nonfermentative bacteria. The species tested were Enterobacter cloacae ([2]), Escherichia coli ([5]), Klebsiella pneumoniae ([4]), Pseudomonas aeruginosa ([4]), and Serratia marcescens ([4]). All of the strains selected have been characterized for their antibiotic resistance profiles.
# (§4) Antimicrobial activity was determined using the broth microdilution method based on the guidelines of the Clinical and Laboratory Standards Institute (CLSI) ([39]), using cation-adjusted Mueller-Hinton broth (CAMHB) as the testing medium. Reference Gram-positive and Gram-negative bacteria were tested, including both enteric and Pseudomonas aeruginosa strains. Each MIC was determined in at least three independent assays.
# Protocol for Enterobacter cloacae: (§5) The bacterial species tested are Klebsiella pneumoniae (K. p.), Serratia marcescens (S. m.), Enterobacter cloacae (E. cl.), Escherichia coli (E. c.), and Pseudomonas aeruginosa (P. a.). MICs were determined by the microdilution assay. […] The results are the median values of at least three independent assays.
# as §4
# Protocol for Escherichia coli: as §5, §4
# Protocol for Klebsiella pneumoniae: as §5, §4
# Protocol for Pseudomonas aeruginosa: as §5, §4
# Protocol for Serratia marcescens: as §5, §4
structure (smiles),measurement,setting,value
CC[C@H](C)[C@H](NC(=O)[C@H](CCCCN)NC(=O)[C@H](CCC(=O)O)NC(=O)[C@H](CCCCN)NC(=O)[C@H](CO)NC(=O)[C@H](CCCCN)NC(=O)[C@H](CCCNC(=N)N)NC(=O)[C@H](Cc1ccccc1)NC(=O)[C@H](Cc1ccccc1)NC(=O)[C@H](CC(=O)O)NC(=O)CNC(=O)[C@H](CC(C)C)NC(=O)[C@@H](N)CC(C)C)C(=O)NCC(=O)N[C@@H](CCCCN)C(=O)N[C@@H](CCC(=O)O)C(=O)N[C@@H](Cc1ccccc1)C(=O)N[C@@H](CCCCN)C(=O)N[C@@H](CCCNC(=N)N)C(=O)N[C@H](C(=O)N[C@H](C(=O)N[C@@H](CCC(N)=O)C(=O)N[C@@H](CCCNC(=N)N)C(=O)N[C@H](C(=O)N[C@@H](CCCCN)C(=O)N[C@@H](CC(=O)O)C(=O)N[C@@H](Cc1ccccc1)C(=O)N[C@@H](CC(C)C)C(=O)N[C@@H](CCCNC(=N)N)C(=O)N[C@@H](CC(N)=O)C(=O)N[C@@H](CC(C)C)C(=O)N[C@H](C(=O)N1CCC[C@H]1C(=O)N[C@@H](CCCNC(=N)N)C(=O)N[C@H](C(=O)N[C@@H](CCC(=O)O)C(=O)N[C@@H](CO)C(=O)O)[C@@H](C)O)C(C)C)[C@@H](C)CC)C(C)C)[C@@H](C)CC [LL-37],% IL-6 produced compared to controls (SD) TLR3,"TLR3; poly(I·C) […], peptide 2 µM, ELISA, control cells = 100%, mean (SD) of minimum three assays",389(16) %
same,increase of IL-6 production,"TLR3; poly(I·C), 2 µM peptide",threefold
same,% IL-6 produced compared to controls (SD) TLR9,TLR9,175(15) %
same,% IL-6 produced compared to controls (SD) TLR4,"TLR4; BEAS-2B cells, LPS 0.5 µg/ml, peptide 2 µM, ELISA, control cells = 100%, mean (SD) of minimum three assays",55(3) %
same,IL-6 production relative to untreated cells,"TLR4; LPS-induced TLR4 signaling, 2 µM peptide",approximately half
same,# strains inhibited at 16 µg/ml peptide E. cl.,Enterobacter cloacae,0/2
same,MIC E. cloacae 4080,Enterobacter cloacae; [1],32 µg/mL
same,MIC E. cloacae 4092,Enterobacter cloacae; [1],>32 µg/mL
same,# strains inhibited at 16 µg/ml peptide E. c.,Escherichia coli,0/6
same,MIC E. coli ATCC 25922,Escherichia coli; [1],32 µg/mL
same,MIC E. coli ATCC 35218,Escherichia coli; [1],32 µg/mL
same,MIC E. coli IU0342,Escherichia coli; [1],32 µg/mL
same,MIC E. coli J53 AzideR,Escherichia coli; [1],>32 µg/mL
same,MIC E. coli MC4100,Escherichia coli; [1],>32 µg/mL
same,# strains inhibited at 16 µg/ml peptide K. p.,Klebsiella pneumoniae,0/4
same,MIC K. pneumoniae 4110,Klebsiella pneumoniae; [1],>32 µg/mL
same,MIC K. pneumoniae ATCC 700603,Klebsiella pneumoniae; [1],>32 µg/mL
same,MIC K. pneumoniae C2,Klebsiella pneumoniae; [1],>32 µg/mL
same,MIC K. pneumoniae OC8893,Klebsiella pneumoniae; [1],>32 µg/mL
same,# strains inhibited at 16 µg/ml peptide P. a.,Pseudomonas aeruginosa,0/4
same,MIC P. aeruginosa 4083,Pseudomonas aeruginosa; [1],32 µg/mL
same,MIC P. aeruginosa ATCC 27853,Pseudomonas aeruginosa; [1],>32 µg/mL
same,MIC P. aeruginosa PAO1,Pseudomonas aeruginosa; [1],32 µg/mL
same,MIC P. aeruginosa PAO1 ΔOprD,Pseudomonas aeruginosa; [1],32 µg/mL
same,# strains inhibited at 16 µg/ml peptide S. m.,Serratia marcescens,0/3
same,MIC S. marcescens 4075,Serratia marcescens; [1],>32 µg/mL
same,MIC S. marcescens 4101,Serratia marcescens; [1],>32 µg/mL
same,MIC S. marcescens 4104,Serratia marcescens; [1],>32 µg/mL
same,MIC S. marcescens 7553,Serratia marcescens; [1],>32 µg/mL
same,No. of strains inhibited at 16 µg/ml/total no. of strains,19 Gram-negative strains,0/19
same,MIC for any/all of the 19 bacterial strains,19 Gram-negative strains; statement over all 19 Gram-negative strains,at least 32 µg/ml
